Data from patent US5049494A, “Conversion of mannose to fructose” (Allied-Signal Inc., priority 1989, dated 1991).

Tested on: immobilized mannose isomerase
Details: 0.4 g immobilized enzyme, 40° C., 5 ml of 0.1M sugar solution, after 18 hours
Protocol: Mannose isomerase activity was typically determined at 40° C. using a feedstock containing 0.1M D-mannose and 0.2M Tris buffer at pH 6.5. Mannose isomerase activity was determined in extracts primarily by measuring mannose-dependent formation of fructose according to the method described by J. H. Roe, J Biol. Chem. 107: 15-19 (1934). Assay mixtures (1 ml) containing 200 mM Tris buffer, pH 7, 100 mM D-mannose, and appropriately diluted cell extract were incubated at 40° C. After 15 min., 0.2 ml of each reaction mixture was transferred to a separate tube and 0.2 ml of ethanol containing 0.1% (wt/vol) resorcinol and 0.6 ml of 10N HCl was added. The tubes were incubated at 80° C. for 8 min, and then placed in ice water to stop the reaction. The absorbance at 484 nm was determined and compared to a standard curve relating absorbance to fructose concentration. An absorbance of 0.1 was equivalent to 150 nmoles of fructose per ml of assay mixture. The conversion of mannose to fructose (as well as any reactions with other sugars) was also determined using HPLC and known standards.
A similar set of experiments was used to test the behavior of the enzyme in the presence of other sugar substrates. For such experiments a mixed sugar feed was prepared approximating the ratios of hemicellulose-derived sugars identified in sulfite waste liquor streams and containing (in grams per liter of 0.2M Tris buffer at pH 7) galactose (15.9), glucose (15.9), mannose (40.3), arabinose (8.0), and xylose (15.2),.

Row | loss of sugar | Structure (SMILES)
1 | no detectable loss | O=C[C@H](O)[C@@H](O)[C@@H](O)[C@H](O)CO [D-galactose]
2 | no detectable loss | O=C[C@@H](O)[C@@H](O)[C@H](O)CO [D-lyxose]
3 | no detectable loss | O=C[C@H](O)[C@@H](O)[C@H](O)CO [D-xylose]
4 | no detectable loss | O=C(CO)[C@@H](O)[C@H](O)CO [D-xylulose]
5 | no detectable loss | O=C[C@H](O)[C@@H](O)[C@@H](O)CO [L-arabinose]
6 | no detectable loss | O=C[C@H](O)[C@H](O)[C@@H](O)[C@@H](O)CO [L-mannose]
7 | no detectable loss | C[C@H](O)[C@H](O)[C@@H](O)[C@@H](O)C=O [L-rhamnose]
